From patent US20090042724A1, “Fungicidal mixtures based on 2,4-disubstituted n-biphenylpyrazolecarboxamides” (priority 2005, published 2009)

Tests used:
Format in all cases: in vivo
Puccinia recondita [1] = assay: Protective activity against Puccinia recondita on wheat (brown rust of wheat); details: single active compound, control 90% infection, read-out: Observed activity (% infection)
Description: (§1) The active compounds, separately or jointly, were prepared as a stock solution comprising 25 mg of active compound which was made up to 10 ml using a mixture of acetone and/or dimethyl sulfoxide and the emulsifier Uniperol® EL (wetting agent having an emulsifying and dispersing action based on ethoxylated alkylphenols) in a ratio by volume of solvent/emulsifier of 99:1. The mixture was then made up to 100 ml with water. This stock solution was diluted with the solvent/emulsifier/water mixture described to give the concentration of active compound stated below.
(§2) Alternatively, the active compounds epoxiconazole and pyraclostrobin were used as a commercial formulation and diluted with water to the stated active compound concentrations.
(§3) The visually determined percentages of infected leaf areas were converted into efficacies in % of the untreated control.
(§4) The efficacy (E) is calculated as follows using Abbot's formula: […]
(§5) α corresponds to the fungicidal infection of the treated plants in % and β corresponds to the fungicidal infection of the untreated (control) plants in %
(§6) An efficacy of 0 means that the infection level of the treated plants corresponds to that of the untreated control plants; an efficacy of 100 means that the treated plants were not infected.
(§7) The expected efficacies of active compound mixtures were determined using Colby's formula [R. S. Colby, “Calculating synergistic and antagonistic responses of herbicide combinations”, Weeds 15, 20-22 (1967)] and compared with the observed efficacies.
(§8) E=x+y−x·y/100 Colby's formula • E expected efficacy, expressed in % of the untreated control, when using the mixture of the active compounds A and B at the concentrations a and b; • x efficacy, expressed in % of the untreated control, when using the active compound A at the concentration a; • y efficacy, expressed in % of the untreated control, when using the active compound B at the concentration b;
Leaves of potted wheat seedlings of the cultivar “Kanzler” were sprayed to runoff point with an aqueous suspension having the concentration of active compound stated below. The next day the treated plants were inoculated with a spore suspension of brown rust of wheat (Puccinia recondita). The plants were then placed in a chamber at high atmospheric humidity (90 to 95%) at 20 to 22° C. for 24 hours. During this time, the spores germinated and the germ tubes penetrated into the leaf tissue. The next day, the test plants were returned to the greenhouse and cultivated at temperatures between 20 and 22° C. and 65 to 70% relative atmospheric humidity for a further 7 days. The extent of the rust fungus development on the leaves was then determined visually.

Puccinia recondita [2] = assay: Curative activity against brown rust of wheat caused by Puccinia recondita; details: 168 h, single active compound, sprayed the day after inoculation, 7 days, control 90% infection, read-out: Observed activity (% infection)
Description: as §1, §2, §3, §4
(§9) The expected efficacies of active compound mixtures were determined using Colby's formula [R. S. Colby, “Calculating synergistic and antagonistic responses of herbicide combinations”, Weeds 15, 20-22 (1967)] and compared with the observed efficacies. […]
Leaves of wheat seedlings of the cultivar “Kanzler” cultivated in pots were inoculated with a spore suspension of brown rust (Puccinia recondita). […] The extent of the rust fungus development on the leaves was then determined.

Alternaria solani = assay: Activity against early blight on tomatoes caused by Alternaria solani (protective spray, potted tomato plants); details: 120 h, single active compound, efficacy in % of untreated control (Abbot), evaluated after 5 days, control 90% infection, read-out: Observed activity (% infection); for inhibition at 1 µg/mL: 1 mg/l; for inhibition at 4 µg/mL: 4 mg/l
Description: as §1, §2, §3, §4, §5, §6, §7, §8
Leaves of potted tomato plants were sprayed to runoff point with an aqueous suspension having the concentration of active compounds stated below. The next day, the leaves were infected with an aqueous spore suspension of Alternaria solani in a 2% biomalt solution having a density of 0.17×10^6 spores/ml. The plants were then placed in a water vapor-saturated chamber at temperatures between 20 and 22° C. After 5 days, the disease on the untreated, but infected control plants had developed to such an extent that the infection could be determined visually in %.

[3] = tested on: Pyrenophora [syn. Drechslera] teres; assay: Activity against net blotch of barley caused by Pyrenophora teres, 1 day protective application; details: 144 h, single active compound, after 6 days, control 90% infection, read-out: Observed activity (% infection); for inhibition at 16 µg/mL: 16 mg/l
Description: as §1, §2, §3, §4, §5, §6, §9
Leaves of potted barley seedlings were sprayed to runoff point with an aqueous suspension having the concentration of active compound stated below. […] After 6 days, the extent of the development of the disease was determined visually in % infection of the entire leaf area.

Botrytis cinerea = assay: Activity against gray mold on bell pepper leaves caused by Botrytis cinerea, 1 day protective application; details: 120 h, single active compound, 1 mg/l, efficacy in % of untreated control, after 5 days, control 100% infection, read-out: Observed activity (% infection)
Description: as §1, with “below. […]” for “below.”
as §3, §4, §9
Bell pepper seedlings of the cultivar “Neusiedler Ideal Elite” were, after 2-3 leaves were well developed, sprayed to runoff point with an aqueous suspension in the active compound concentration stated below. […] After 5 days, the extent of the fungal infection on the leaves could be determined visually in %.

`Fc1ccc([C@]2(Cn3cncn3)O[C@H]2c2ccccc2Cl)cc1` (racemic) [epoxiconazole, (2RS,3SR)-1-[3-(2-chlorophenyl)-2,3-epoxy-2-(4-fluorophenyl)propyl]-1H-1,2,4-triazole] showed an inhibition at 0.063 µg/mL (Puccinia recondita [1]; 0.063 mg/l) of 11% and an inhibition at 0.25 µg/mL (Puccinia recondita [2]; 0.25 mg/l) of 0%.
With `Cn1nc(C(F)(F)F)c(C(=O)Nc2ccccc2-c2ccc(Cl)cc2Cl)c1F` [No. I.17, N-(2′,4′-dichlorobiphenyl-2-yl)-1-methyl-3-trifluoromethyl-5-fluoro-1H-pyrazole-4-carboxamide] the inhibition at 16 µg/mL (Puccinia recondita [1]; 16 mg/l) was 22%, the inhibition at 1 µg/mL (Alternaria solani) was 0% and the inhibition at 1 µg/mL (Puccinia recondita [2]; 1 mg/l) was 0%.
In the case of `COc1cc(C)c(C(=O)c2c(OC)ccc(Br)c2C)c(OC)c1OC` [metrafenone, 3′-bromo-2,3,4,6′-tetramethoxy-2′,6-dimethylbenzophenone], the inhibition at 63 µg/mL (Puccinia recondita [1]; 63 mg/l) is reported as 0% and the inhibition at 16 µg/mL [3] is reported as 0%.
`Cn1cc(C(=O)Nc2ccccc2-c2ccc(Cl)cc2Cl)c(C(F)F)n1` [No. I.7, N-(2′,4′-dichlorobiphenyl-2-yl)-1-methyl-3-difluoromethyl-1H-pyrazole-4-carboxamide] was tested, and the inhibition at 0.25 µg/mL (Puccinia recondita [1]; 0.25 mg/l) was 11% and the inhibition at 1 µg/mL (Alternaria solani) was 0%.
`COC(=O)N(OC)c1ccccc1COc1ccn(-c2ccc(Cl)cc2)n1` [pyraclostrobin, methyl N-{2-[1-(4-chlorophenyl)-1H-pyrazol-3-yloxymethyl]phenyl}(N-methoxy)carbamate] showed an inhibition at 1 µg/mL (Botrytis cinerea) of 0%.
`Cn1cc(C(=O)Nc2ccccc2-c2ccc(F)cc2F)c(C(F)F)n1` [No. I.11, N-(2′,4′-difluorobiphenyl-2-yl)-1-methyl-3-difluoromethyl-1H-pyrazole-4-carboxamide] showed an inhibition at 4 µg/mL ([3]; 4 mg/l) of 63%, an inhibition at 1 µg/mL (Botrytis cinerea) of 0% and an inhibition at 1 µg/mL (Alternaria solani) of 0%.
With `COc1ccc(C(=CC(=O)N2CCOCC2)c2ccc(Cl)cc2)cc1OC` [dimethomorph, 3-(4-chlorophenyl)-3-(3,4-dimethoxyphenyl)-1-morpholin-4-ylpropenone] the inhibition at 16 µg/mL [3] was 0% and the inhibition at 4 µg/mL (Alternaria solani) was 0%.
For `CC1CCN(c2c(-c3c(F)cc(F)cc3F)c(Cl)nc3ncnn23)CC1` [5-chloro-7-(4-methylpiperidin-1-yl)-6-(2,4,6-trifluorophenyl)-[1,2,4]triazolo[1,5-a]pyrimidine], the inhibition at 4 µg/mL (Alternaria solani) was 22%.
